Reference: PubChem BioAssay AID248 (DTP/NCI, 2004)
“And” between values parts separate entries of the source, which are not always exact repeats. Equal values may be shown once. Inconclusive results and toxic doses are left out. Cut-off read from the data, not from the text of the source: active = T/C of 150% or more; inactive = T/C below 125%.

System: L1210 leukemia ip in BDF1 mice, survival T/C
Test: NCI In Vivo Anticancer Drug Screen. Data for tumor model L1210 Leukemia (intraperitoneal) in B6D2F1 (BDF1) mice
Details: endpoint: mean survival time, higher = longer survival
Outline: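 Value reflects the ratio of survival in compound-treated mice to survival in vehicle-treated controls, with both groups carrying the same transplanted tumor.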

[1] = dose: 100.0 mg/kg/injection, schedule: Q04DX002 (ip), vehicle: saline
[2] = dose: 200.0 mg/kg/injection, schedule: Q04DX002 (ip), vehicle: saline
[3] = dose: 400.0 mg/kg/injection, schedule: Q04DX002 (ip), vehicle: saline
[4] = dose: 100.0 mg/kg/injection, schedule: Q01DX009 (ip), vehicle: saline
[5] = dose: 200.0 mg/kg/injection, schedule: Q01DX009 (ip), vehicle: saline
[6] = dose: 50.0 mg/kg/injection, schedule: Q01DX001 (ip), vehicle: saline
[7] = dose: 100.0 mg/kg/injection, schedule: Q01DX001 (ip), vehicle: saline
[8] = dose: 200.0 mg/kg/injection, schedule: Q01DX001 (ip), vehicle: saline
[9] = dose: 100.0 mg/kg/injection, schedule: Q01DX009 (ip), vehicle: Klucel (hydroxypropylcellulose) (HPC)
[10] = dose: 100.0 mg/kg/injection, schedule: Q04DX003 (ip), vehicle: Klucel (hydroxypropylcellulose) (HPC)
[11] = dose: 200.0 mg/kg/injection, schedule: Q01DX009 (ip), vehicle: Klucel (hydroxypropylcellulose) (HPC)
[12] = dose: 200.0 mg/kg/injection, schedule: Q04DX003 (ip), vehicle: Klucel (hydroxypropylcellulose) (HPC)
[13] = dose: 100.0 mg/kg/injection, schedule: Q04DX002 (ip), vehicle: Klucel (hydroxypropylcellulose) (HPC)
[14] = dose: 200.0 mg/kg/injection, schedule: Q04DX002 (ip), vehicle: Klucel (hydroxypropylcellulose) (HPC)
[15] = dose: 400.0 mg/kg/injection, schedule: Q04DX002 (ip), vehicle: Klucel (hydroxypropylcellulose) (HPC)

Measured: T/C

Cc1cccc(C2=N/C(=C\c3c(O)ccc4ccccc34)C2=O)c1
inactive: [1] 120 % of control | [2] 95 % of control | [3] 98 % of control

CC(O)(C#N)C(F)(F)F (stereo not given)
inactive: dose: 75.0 mg/kg/injection, schedule: Q01DX001 (ip), vehicle: saline 102 % of control | dose: 150.0 mg/kg/injection, schedule: Q01DX001 (ip), vehicle: saline 91 % of control | dose: 300.0 mg/kg/injection, schedule: Q01DX001 (ip), vehicle: saline 105 % of control

CCOC(=O)c1c(N)sc2c1CCC2
inactive: dose: 100.0 mg/kg/injection, schedule: Q01DX001 (ip), vehicle: saline with Tween-80 110 % of control | [4] 102 % of control | [1] 93 % of control | dose: 200.0 mg/kg/injection, schedule: Q01DX001 (ip), vehicle: saline with Tween-80 103 % of control | [5] 107 % of control | [2] 96 % of control | dose: 400.0 mg/kg/injection, schedule: Q01DX001 (ip), vehicle: saline with Tween-80 98 % of control | [3] 89 % of control

COC(=O)CC(=O)c1cc(C(C)(C)C)cc(C(C)(C)C)c1
inactive: dose: 100.0 mg/kg/injection, schedule: Q04DX003 (ip), vehicle: DMSO 96 % of control | dose: 200.0 mg/kg/injection, schedule: Q04DX003 (ip), vehicle: DMSO 103 % of control

CCCCCCC[As](=O)(O)CCCCCCC
inactive: [6] 106 % of control | [7] 103 % of control | [8] 101 % of control

Oc1ccc2c(c1)CCc1cn[nH]c1-2
inactive: dose: 100.0 mg/kg/injection, schedule: Q01DX001 (ip), vehicle: other 102 % of control | dose: 100.0 mg/kg/injection, schedule: Q01DX009 (ip), vehicle: other 98 % of control | dose: 200.0 mg/kg/injection, schedule: Q01DX001 (ip), vehicle: other 103 % of control | dose: 200.0 mg/kg/injection, schedule: Q01DX009 (ip), vehicle: other 96 % of control | dose: 400.0 mg/kg/injection, schedule: Q01DX001 (ip), vehicle: other 98 % of control | dose: 400.0 mg/kg/injection, schedule: Q01DX009 (ip), vehicle: other 94 % of control

CC(=O)CC(=O)N1CCCC(C)C1 (stereo not given)
inactive: [9] 102 % of control | [10] 104 % of control | [11] 92 % of control | [12] 106 % of control | dose: 400.0 mg/kg/injection, schedule: Q01DX009 (ip), vehicle: Klucel (hydroxypropylcellulose) (HPC) 96 % of control | dose: 400.0 mg/kg/injection, schedule: Q04DX003 (ip), vehicle: Klucel (hydroxypropylcellulose) (HPC) 106 % of control

Oc1ccccc1O.[O-]c1ccccc1[O-].[O-]c1ccccc1[O-].[O]=[V+2]
inactive: dose: 4.0 mg/kg/injection, schedule: Q01DX015 (ip), vehicle: saline 100 % of control | dose: 8.0 mg/kg/injection, schedule: Q01DX015 (ip), vehicle: saline 94 % of control | dose: 12.5 mg/kg/injection, schedule: Q04DX003 (ip), vehicle: saline 111 % of control | dose: 16.0 mg/kg/injection, schedule: Q01DX015 (ip), vehicle: saline 96 % of control | dose: 18.75 mg/kg/injection, schedule: Q01DX009 (ip), vehicle: saline 90 % of control | dose: 25.0 mg/kg/injection, schedule: Q04DX003 (ip), vehicle: saline 102 % of control | dose: 32.0 mg/kg/injection, schedule: Q01DX015 (ip), vehicle: saline 102 % of control | dose: 37.5 mg/kg/injection, schedule: Q01DX009 (ip), vehicle: saline 101 % of control | dose: 50.0 mg/kg/injection, schedule: Q04DX003 (ip), vehicle: saline 100 % of control | dose: 75.0 mg/kg/injection, schedule: Q04DX003 (ip), vehicle: saline 97 % of control

Cc1cc2nc3[nH]c4ccccc4c3nc2cc1C
inactive: dose: 12.5 mg/kg/injection, schedule: Q01DX015 (ip), vehicle: saline 98 % of control | dose: 25.0 mg/kg/injection, schedule: Q01DX015 (ip), vehicle: saline 87 % of control | [6] 91 % of control | dose: 50.0 mg/kg/injection, schedule: Q01DX015 (ip), vehicle: saline 115 % of control | [7] 94 % of control | dose: 100.0 mg/kg/injection, schedule: Q01DX015 (ip), vehicle: saline 120 % of control | [8] 91 % of control | dose: 200.0 mg/kg/injection, schedule: Q01DX015 (ip), vehicle: saline 108 % of control and 90 % of control | dose: 400.0 mg/kg/injection, schedule: Q01DX001 (ip), vehicle: saline 97 % of control | dose: 400.0 mg/kg/injection, schedule: Q01DX015 (ip), vehicle: saline 104 % of control | dose: 800.0 mg/kg/injection, schedule: Q01DX001 (ip), vehicle: saline 103 % of control | dose: 800.0 mg/kg/injection, schedule: Q01DX015 (ip), vehicle: saline 87 % of control

CCCCCCCCCCCC(CCCCCCCC)CCCCCCCC
inactive: dose: 100.0 mg/kg/injection, schedule: Q04DX003 (ip), vehicle: saline 94 % of control | dose: 200.0 mg/kg/injection, schedule: Q04DX003 (ip), vehicle: saline 93 % of control | dose: 400.0 mg/kg/injection, schedule: Q04DX003 (ip), vehicle: saline 100 % of control

CC1(C)CCC2=C(C1)Nc1ccc(Cl)cc1NC2c1ccc([N+](=O)[O-])cc1 (stereo not given)
inactive: [13] 117 % of control | [14] 109 % of control | [15] 98 % of control

CCCNC(C)=O
inactive: [4] 102 % of control | [5] 101 % of control | dose: 400.0 mg/kg/injection, schedule: Q01DX009 (ip), vehicle: saline 91 % of control

CCC(C)CC(C)c1ccncc1 (stereo not given)
inactive: dose: 5.0 mg/kg/injection, schedule: Q01DX001 (ip), vehicle: saline 97 % of control | dose: 10.0 mg/kg/injection, schedule: Q01DX001 (ip), vehicle: saline 100 % of control | dose: 20.0 mg/kg/injection, schedule: Q01DX001 (ip), vehicle: saline 100 % of control | dose: 40.0 mg/kg/injection, schedule: Q01DX001 (ip), vehicle: saline 97 % of control | dose: 80.0 mg/kg/injection, schedule: Q01DX001 (ip), vehicle: saline 97 % of control | [7] 97 % of control

O=C1CN=C(c2ccccc2Cl)c2cc(Cl)ccc2N1
inactive: dose: 12.5 mg/kg/injection, schedule: Q01DX009 (ip), vehicle: Klucel (hydroxypropylcellulose) (HPC) 114 % of control | dose: 25.0 mg/kg/injection, schedule: Q01DX009 (ip), vehicle: Klucel (hydroxypropylcellulose) (HPC) 95 % of control | dose: 25.0 mg/kg/injection, schedule: Q04DX003 (ip), vehicle: Klucel (hydroxypropylcellulose) (HPC) 100 % of control | dose: 50.0 mg/kg/injection, schedule: Q01DX009 (ip), vehicle: Klucel (hydroxypropylcellulose) (HPC) 106 % of control | dose: 50.0 mg/kg/injection, schedule: Q04DX003 (ip), vehicle: Klucel (hydroxypropylcellulose) (HPC) 105 % of control | [9] 97 % of control | [10] 100 % of control | [11] 103 % of control | [12] 120 % of control

O=C(Nc1cc([N+](=O)[O-])ccc1Cl)c1ccc(F)cc1
inactive: [13] 102 % of control | [14] 98 % of control | [15] 102 % of control
